Earlier results in patent US20260174720A1, “NERVONIC ACID COMPOSITION FOR IMPROVING MEMORY-BASED LEARNING FUNCTION AND A PREPARATION METHOD THEREOF” (Guangzhou Decade Nutrition Technology Co., Ltd., priority 2024, published 2026).

solubility in alcohols such as methanol, ethanol: soluble in alcohols | solubility in water (room temperature): insoluble in water
Structure (SMILES): CCCCCCCC/C=C\CCCCCCCCCCCCCC(=O)O [Nervonic acid, cis-15-Tetracosenic Acid]
